Holding throughout (format): biochemical
Assay [1] addresses human JAK1 (a.a. 837-1142) (Homo sapiens, UniProt P23458). Put plainly: In vitro JAK kinase assay (HTRF, phosphorylation of a biotinylated peptide), JAK1. To be noted: measured at 1 mM ATP. Summed up:
(§1)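 Phosphorylation of a biotinylated peptide by purified His-tagged JAK catalytic domains (insect-cell baculovirus expression) ran 1 hr at room temperature. After stopping with EDTA, Eu-Py20 and SA-APC were bound for 40 minutes and HTRF measured.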
(In general: TR-FRET usually uses a lanthanide donor and a delayed reading to cut background.)

In assay [2] the target is human JAK1 (a.a. 837-1142). The description is as above. To be noted: ratio of JAK2 IC50 to JAK1 IC50, measured at 1 mM ATP. An outline of the steps:
as §1

A further assay addresses Jak2 (a.a. 828-1132) (Homo sapiens (Human), UniProt O60674). Put plainly: In vitro JAK kinase assay (HTRF, phosphorylation of a biotinylated peptide), JAK2. To be noted: measured at 1 mM ATP. An outline of the steps:
as §1

21 compounds from patent US9999619B2, “Piperidin-4-yl azetidine derivatives as JAK1 inhibitors” (Incyte Corporation, priority 2010, dated 2018) can be followed below.

Chain of Jak2 (a.a. 828-1132) (O60674 828-1132): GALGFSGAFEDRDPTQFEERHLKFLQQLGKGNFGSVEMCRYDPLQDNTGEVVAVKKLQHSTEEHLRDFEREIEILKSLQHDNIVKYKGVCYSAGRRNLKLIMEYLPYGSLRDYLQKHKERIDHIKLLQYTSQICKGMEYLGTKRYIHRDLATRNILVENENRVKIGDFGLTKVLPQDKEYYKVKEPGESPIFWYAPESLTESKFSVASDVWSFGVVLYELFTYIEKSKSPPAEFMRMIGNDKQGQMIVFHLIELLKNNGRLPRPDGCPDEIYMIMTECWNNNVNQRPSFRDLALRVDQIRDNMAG

For orientation: IC50 means the concentration that gives 50% inhibition. For `N#CCC1(n2cc(-c3ccnc4[nH]ccc34)cn2)CN(C2CCN(C(=O)c3cnc(C(F)(F)F)cn3)CC2)C1` [Example 301, [3-[4-(1H-pyrrolo[2,3-b]pyridin-4-yl)-1H-pyrazol-1-yl]-1-(1-{[5-(trifluoromethyl)pyrazin-2-yl]carbonyl}piperidin-4-yl)azetidin-3-yl]acetonitrile], the IC50 in assay [1] lay in the range of 20 to 30 nM; on Jak2 (a.a. 828-1132), 50 to 100 nM. The “IC50 Ratio JAK2/JAK1” value in assay [2] is recorded as 3.3.

Take `N#CCC1(n2cc(-c3ccnc4[nH]ccc34)cn2)CN(C2CCN(C(=O)C3CCC(F)(F)CC3)CC2)C1` [Example 302, {1-{1-[(4,4-fluorocyclohexyl)carbonyl]piperidin-4-yl}-3-[4-(1H-pyrrolo[2,3-b]pyridin-4-yl)-1H-pyrazol-1-yl]azetidin-3-yl}acetonitrile]: the half-inhibitory concentration (IC50) is 20 to 30 nM in assay [1] and more than 100 nM at Jak2 (a.a. 828-1132). In assay [2], the “IC50 Ratio JAK2/JAK1” value is listed as 6.5.

On to `N#CCC1(n2cc(-c3ccnc4[nH]ccc34)cn2)CN(C2CCN(C(=O)Nc3ccc(F)cc3C(F)(F)F)CC2)C1` [Example 303, 4-{3-(Cyanomethyl)-3-[4-(1H-pyrrolo[2,3-b]pyridin-4-yl)-1H-pyrazol-1-yl]azetidin-1-yl}-N-[4-fluoro-2-(trifluoromethyl)phenyl]piperidine-1-carboxamide], for which the IC50 was not above 5 nM in assay [1] and 50 to 100 nM at Jak2 (a.a. 828-1132). In addition, the “IC50 Ratio JAK2/JAK1” value in assay [2] is reported as 19.7.

Regarding `N#CCC1(n2cc(-c3ccnc4[nH]ccc34)cn2)CN(C2CCN(C(=O)Nc3ccc(F)cc3F)CC2)C1` [Example 304, 4-{3-(cyanomethyl)-3-{4-(1H-pyrrolo[2,3-b]pyridin-4-yl)-1H-pyrazol-1-yl]azetidin-1-yl}-N-(2,4-difluorophenyl)piperidine-1-carboxamide], the IC50 is not above 5 nM in assay [1] and 10 to 50 nM against Jak2 (a.a. 828-1132). Also, in assay [2], the “IC50 Ratio JAK2/JAK1” value came to 10.3.

With `N#CCC1(n2cc(-c3ccnc4[nH]ccc34)cn2)CN(C2CCN(C(=O)Nc3ccc(F)cc3Cl)CC2)C1` [Example 305, N-(2-chloro-4-fluorophenyl)-4-{3-(cyanomethyl)-3-[4-(1H-pyrrolo[2,3-b]pyridin-4-yl)-1H-pyrazol-1-yl]azetidin-1-yl}piperidine-1-carboxamide], the IC50 in assay [1] is not above 5 nM; on Jak2 (a.a. 828-1132), 50 to 100 nM. The “IC50 Ratio JAK2/JAK1” value in assay [2] stood at 16.0.

For `COc1ncccc1NC(=O)N1CCC(N2CC(CC#N)(n3cc(-c4ccnc5[nH]ccc45)cn3)C2)CC1` [Example 306, 4-{3-(cyanomethyl)-3-[4-(1H-pyrrolo[2,3-b]pyridin-4-yl)-1H-pyrazol-1-yl]azetidin-1-yl}-N-(2-methoxypyridin-3-yl)piperidine-1-carboxamide], the IC50 lay within 5 to 20 nM in assay [1] and 10 to 50 nM on Jak2 (a.a. 828-1132). The “IC50 Ratio JAK2/JAK1” value in assay [2] is 3.5.

With `N#CCC1(n2cc(-c3ccnc4[nH]ccc34)cn2)CN(C2CCN(C(=O)Nc3ccncc3C(F)(F)F)CC2)C1` [Example 307, 4-{3-(cyanomethyl)-3-[4-(1H-pyrrolo[2,3-b]pyridin-4-yl)-1H-pyrazol-1-yl]azetidin-1-yl}-N-[3-(trifluoromethyl)pyridin-4-yl]piperidine-1-carboxamide], the IC50 in assay [1] was in the range of 5 to 20 nM; against Jak2 (a.a. 828-1132), 50 to 100 nM. In assay [2], the “IC50 Ratio JAK2/JAK1” value worked out at 8.8.

On to `N#CCC1(n2cc(-c3ccnc4[nH]ccc34)cn2)CN(C2CCN(C(=O)Nc3cnccc3C(F)(F)F)CC2)C1` [Example 308, 4-{3-(cyanomethyl)-3-[4-(1H-pyrrolo[2,3-b]pyridin-4-yl)-1H-pyrazol-1-yl]azetidin-1-yl}-N-[4-(trifluoromethyl)pyridin-3-yl]piperidine-1-carboxamide], for which the figures for the IC50 (in assay [1]; on Jak2 (a.a. 828-1132)) were not above 5 nM and 50 to 100 nM, respectively. Further, the “IC50 Ratio JAK2/JAK1” value in assay [2] is on record as 10.4.

In the case of `N#CCC1(n2cc(-c3ccnc4[nH]ccc34)cn2)CN(C2CCN(C(=O)Nc3ccccc3F)CC2)C1` [Example 309, 4-{3-(cyanomethyl)-3-[4-(1H-pyrrolo[2,3-b]pyridin-4-yl)-1H-pyrazol-1-yl]azetidin-1-yl}-N-(2-fluorophenyl)piperidine-1-carboxamide], the concentration for half-maximal inhibition (IC50) in assay [1] is 5 to 20 nM; at Jak2 (a.a. 828-1132) it was 10 to 50 nM. The “IC50 Ratio JAK2/JAK1” value in assay [2] came to 5.3.

As for `N#CCC1(n2cc(-c3ccnc4[nH]ccc34)cn2)CN(C2CCN(C(=O)Nc3ccccc3Cl)CC2)C1` [Example 310, N-(2-chlorophenyl)-4-{3-(cyanomethyl)-3-[4-(1H-pyrrolo[2,3-b]pyridin-4-yl)-1H-pyrazol-1-yl]azetidin-1-yl}piperidine-1-carboxamide], the IC50 in assay [1] is not above 5 nM; on Jak2 (a.a. 828-1132) it was 10 to 50 nM. For the same compound, the “IC50 Ratio JAK2/JAK1” value in assay [2] came to 9.0.

For `N#CCC1(n2cc(-c3ccnc4[nH]ccc34)cn2)CN(C2CCN(C(=O)Nc3ccc(C#N)cc3C(F)(F)F)CC2)C1` [Example 311, 4-{3-(cyanomethyl)-3-[4-(1H-pyrrolo[2,3-b]pyridin-4-yl)-1H-pyrazol-1-yl]azetidin-1-yl}-N-[4-cyano-2-(trifluoromethyl)phenyl]piperidine-1-carboxamide], the IC50 is 5 to 20 nM in assay [1] and more than 100 nM on Jak2 (a.a. 828-1132). The “IC50 Ratio JAK2/JAK1” value in assay [2] is reported as 11.1.

`N#CCC1(n2cc(-c3ccnc4[nH]ccc34)cn2)CN(C2CCN(C(=O)Nc3ccc(C#N)cc3F)CC2)C1` [Example 312, N-(4-cyano-2-fluorophenyl)-4-{3-(cyanomethyl)-3-[4-(1H-pyrrolo[2,3-b]pyridin-4-yl)-1H-pyrazol-1-yl]azetidin-1-yl}piperidine-1-carboxamide]: the IC50 in assay [1] is 5 to 20 nM; against Jak2 (a.a. 828-1132) it was 50 to 100 nM. Also, the “IC50 Ratio JAK2/JAK1” value in assay [2] is on record as 5.3.

With `N#CCC1(n2cc(-c3ccnc4[nH]ccc34)cn2)CN(C2CCN(C(=O)Nc3ccc(C#N)cc3Cl)CC2)C1` [Example 313, N-(2-chloro-4-cyanophenyl)-4-{3-(cyanomethyl)-3-[4-(1H-pyrrolo[2,3-b]pyridin-4-yl)-1H-pyrazol-1-yl]azetidin-1-yl}piperidine-1-carboxamide], the figures for the half-inhibitory concentration (IC50) (in assay [1]; on Jak2 (a.a. 828-1132)) were not above 5 nM and 10 to 50 nM, respectively. The “IC50 Ratio JAK2/JAK1” value in assay [2] was determined as 14.3.

`N#CCC1(n2cc(-c3c(F)cnc4[nH]ccc34)cn2)CN(C2CCN(C(=O)c3ccnc(C(F)(F)F)c3F)CC2)C1` [Example 314, (3-[4-(5-Fluoro-1H-pyrrolo[2,3-b]pyridin-4-yl)-1H-pyrazol-1-yl]-1-{1-[3-fluoro-2-(trifluoromethyl)isonicotinoyl]piperidin-4-yl}azetidin-3-yl)acetonitrile]: the IC50 is not above 5 nM in assay [1] and 10 to 50 nM at Jak2 (a.a. 828-1132). In addition, the “IC50 Ratio JAK2/JAK1” value in assay [2] was determined as 11.0.

For `N#CCC1(n2cc(-c3c(F)cnc4[nH]ccc34)cn2)CN(C2CCN(C(=O)c3cc(F)cc(C#N)c3)CC2)C1` [Example 316, 3-[(4-{3-(cyanomethyl)-3-[4-(5-fluoro-1H-pyrrolo[2,3-b]pyridin-4-yl)-1H-pyrazol-1-yl]azetidin-1-yl}piperidin-1-yl)carbonyl]-5-fluorobenzonitrile], the IC50 in assay [1] is not above 5 nM; against Jak2 (a.a. 828-1132), 10 to 50 nM. In addition, the “IC50 Ratio JAK2/JAK1” value in assay [2] was found to be 9.5.

With `N#CCC1(n2cc(-c3c(F)cnc4[nH]ccc34)cn2)CN(C2CCN(C(=O)c3ccc(C#N)cc3F)CC2)C1` [Example 317, 4-[(4-{3-(cyanomethyl)-3-[4-(5-fluoro-1H-pyrrolo[2,3-b]pyridin-4-yl)-1H-pyrazol-1-yl]azetidin-1-yl}piperidin-1-yl)carbonyl]-3-fluorobenzonitrile], the IC50 in assay [1] was not above 5 nM; on Jak2 (a.a. 828-1132), 10 to 50 nM. Also, the “IC50 Ratio JAK2/JAK1” value in assay [2] came out at 4.5.

As for `N#CCC1(n2cc(-c3c(F)cnc4[nH]ccc34)cn2)CN(C2CCN(C(=O)c3ccc(F)c(C#N)c3)CC2)C1` [Example 318, 5-[(4-{3-(cyanomethyl)-3-[4-(5-fluoro-1H-pyrrolo[2,3-b]pyridin-4-yl)-1H-pyrazol-1-yl]azetidin-1-yl}piperidin-1-yl)carbonyl]-2-fluorobenzonitrile], the IC50 in assay [1] lay within 5 to 20 nM; against Jak2 (a.a. 828-1132) it was 10 to 50 nM. In addition, the “IC50 Ratio JAK2/JAK1” value in assay [2] worked out at 4.7.

Turning to `N#CCC1(n2cc(-c3c(F)cnc4[nH]ccc34)cn2)CN(C2CCN(C(=O)c3ccc(F)cn3)CC2)C1` [Example 319, {1-{1-[(5-fluoropyridin-2-yl)carbonyl]piperidin-4-yl}-3-[4-(5-fluoro-1H-pyrrolo[2,3-b]pyridin-4-yl)-1H-pyrazol-1-yl]azetidin-3-yl}acetonitrile], the figures for the IC50 (in assay [1]; on Jak2 (a.a. 828-1132)) were not above 5 nM and 10 to 50 nM, respectively. Besides, the “IC50 Ratio JAK2/JAK1” value in assay [2] is 4.0.

On to `N#CCC1(n2cc(-c3c(F)cnc4[nH]ccc34)cn2)CN(C2CCN(C(=O)c3ccncc3F)CC2)C1` [Example 320, {1-[1-(3-fluoroisonicotinoyl)piperidin-4-yl]-3-[4-(5-fluoro-1H-pyrrolo[2,3-b]pyridin-4-yl)-1H-pyrazol-1-yl]azetidin-3-yl}acetonitrile], for which the half-maximal inhibitory concentration (IC50) in assay [1] is not above 5 nM; against Jak2 (a.a. 828-1132), 10 to 50 nM. In assay [2], the “IC50 Ratio JAK2/JAK1” value is recorded as 2.8.

On to `N#CCC1(n2cc(-c3c(F)cnc4[nH]ccc34)cn2)CN(C2CCN(C(=O)c3c(F)cncc3F)CC2)C1` [Example 321, {1-[1-(3,5-difluoroisonicotinoyl)piperidin-4-yl]-3-[4-(5-fluoro-1H-pyrrolo[2,3-b]pyridin-4-yl)-1H-pyrazol-1-yl]azetidin-3-yl}acetonitrile], for which the results for the concentration for half-maximal inhibition (IC50) (in assay [1]; on Jak2 (a.a. 828-1132)) were not above 5 nM and 10 to 50 nM, respectively. Also, the “IC50 Ratio JAK2/JAK1” value in assay [2] was 3.0.

Turning to `N#CCC1(n2cc(-c3c(F)cnc4[nH]ccc34)cn2)CN(C2CCN(C(=O)c3ccc(O)c(F)c3)CC2)C1` [Example 322, {1-[1-(3-fluoro-4-hydroxybenzoyl)piperidin-4-yl]-3-[4-(5-fluoro-1H-pyrrolo[2,3-b]pyridin-4-yl)-1H-pyrazol-1-yl]azetidin-3-yl}acetonitrile], the results for the IC50 (in assay [1]; on Jak2 (a.a. 828-1132)) were not above 5 nM and not above 10 nM, respectively. Further, the “IC50 Ratio JAK2/JAK1” value in assay [2] was determined as 4.7.
